Assay results taken from the NIST ThermoML archive (doi:10.1021/je2005209).
Numbers after ± are expanded uncertainties.

Conditions: 351.55 K; Liquid; Ebulliometric method (Recirculating still)

CCO [ethanol]
vapor or sublimation pressure: 101.32 ± 1.1 kPa
